According to US20080207532A1, “Use of Nordihydroguaiaretic Acid Derivatives in the Treatment of Drug Resistant Cancer, Viral and Microbial Infection” (Johns Hopkins University, priority 2004, published 2008):
Where “and” joins values, the source holds several entries; their conditions need not be identical. Equal entries are not always repeated. Where two headings read alike, the source gives them in different places.

Legend:
NCI/ADR-RES cells [1] = experiment: SRB cytotoxicity assay with median-effect / combination index analysis; type: cell-based, human; conditions: for IC50: NCI/ADR-RES
Protocol: The multidrug resistant cell line, NCI/ADR-RES, was obtained from the DTP Human Tumor Cell Line Screen (Developmental Therapeutics Program, NCI). Both cell lines were maintained in Dulbecco's modified Eagle's medium supplemented with 10% fetal bovine serum and the antibiotics penicillin and streptomycin. […] Stocks of M4N and paclitaxel (Sigma-Aldrich, St. Louis, Mo.) were prepared in dimethyl sulfoxide (DMSO) and added to the cell culture medium so that the final concentration of DMSO was one percent. Aqueous stocks of Dox (Sigma-Aldrich) were prepared and filter sterilized before dilution into growth medium.
NCI/ADR-RES cells were seeded at a density of 2×10^4 cells per well in 24 well plates and 24 h later the growth medium was supplemented with M4N, Dox, paclitaxel or combinations of M4N with Dox or M4N with paclitaxel. MAN was used at concentrations between 1.5 and 48 μM. For the combination of MAN and Dox a constant molar ratio of 2.4:1 (M4N:Dox) was used and for M4N and paclitaxel the ratio was 20:1 (M4N:paclitaxel). Three days after drug addition cytoxicity was assessed with the SRB assay (14) with 540 and 690 nm (reference) absorbance measured with a Power Wave 200 microplate reader (Bio-Tek Instruments, Winooski, Vt.).
The combination index (CD isobologram method of Chou and Talalay (16, 17, 18, 19) which is based on the median effect principle, was used to calculate synergism or antagonism for the combined drug effects. Dose-effect curves for each drug, singly and in combination, in serially-diluted concentrations were plotted using the median-effect equation and plot (18, 20) and the CI equation and plot (19). CI values at different effect and dose levels and isobolograms were generated automatically using the computer software CompuSyn (20). With this method, additive, synergistic or antagonistic effects are indicated by CI values of 1, <1, and >1, respectively. Comparison of the ratio of doses required to reach a given effect level for each single drug and the drugs in combination was used to determine the dose-reduction index (DRI).

MCF-7 cells = experiment: MTT cell proliferation assay, MCF-7 cells in culture; type: cell-based, human; conditions: 72 hours
Protocol: (§1) MCF-7 cells (a human mammary carcinoma cell line, obtainable from the ATCC P.O. Box 1549, Manassas, Va. 20108) were seeded into 24-well plates at 1.5×10^4 cells/well in 500 μl of Dulbecco's modified Eagle's medium (DMEM) containing 10% fetal bovine serum (FBS) and the antibiotics penicillin and streptomycin. Varying concentrations of M4N were added the next day. After incubation for an additional 3 days, cell proliferation was assessed by the MTT assay. […] The mice were assigned to a treatment group that received M4N dissolved in a 6% Cremaphor EL, 6% ethanol and 88% saline, and to a control group that received the vehicle only. […] Mice received a single daily 100 μL intraperitoneal (i.p.) injection containing 2 mg of M4N for 3 weeks. The control mice received an equal volume of the vehicle. […] The results from the individual mice were combined and the average tumor volume was determined. Statistical significance of the mean differences in tumor volume was assessed by Student's t-test.

NCI/ADR-RES cells [2] = experiment: cell proliferation, NCI/ADR-RES cells in culture; type: cell-based, human; conditions: 72 hours
NCI/ADR-RES xenografts = NCI/ADR-RES xenografts in nude mice, M4N i.p. or oral; type: in vivo; conditions: 21 days systemic treatment, IP injection daily or oral feeding in food balls
Protocol: as §1

MDR1 mRNA = experiment: RT-PCR of MDR1 mRNA in NCI/ADR-RES cells; type: cell-based, human; conditions: 20 μM M4N, three days
Protocol: (§2) Total RNA was isolated using the Trizol Reagent (Invitrogen, Carlsbad, Calif.). RT-PCR was carried out with the Superscript II One-Step RT-PCR system with Platinum Taq DNA Polymerase (Invitrogen) according to the manufacturer's protocol using oligonucleotide primers specific for MDR1: […]
The RT-PCR products were separated by agarose gel electrophoresis and stained with ethidium bromide. Relative band intensities were quantified by ImageJ software (NIH, Bethesda, Md.).
We next examined the effect of M4N on MDR1 gene expression to determine whether the observed synergy between M4N and Dox and paclitaxel in multidrug resistant cells is the result of reversal of the MDR phenotype. We postulated that M4N, through its ability to inhibit Sp1 binding, might down regulate MDR1 gene expression. To examine this possibility, NCI/ADR-RES cells were exposed to 0, 5, 10 and 20 μM M4N for three days, after which total RNA and protein were examined for levels of MDR1 mRNA and Pgp. […] The levels of Pgp were normalized to cyclin B1, whose expression, according to our previous results, is unaffected by M4N (4, 5).

[3] = mouse, IP, IV and oral; cited from earlier work
MDR1 mRNA and Pgp = experiment: Dox induction of MDR1 gene expression in MCF-7 cells; type: cell-based, human; conditions: MCF-7, 0.05 μM Dox with 5.0 μM M4N, two days
Protocol: as §2
Cultured cells were incubated in a solution of 10 mM EDTA and 10 mM EGTA in PBS and then harvested by scraping with a Teflon® cell scraper. The cells were pelleted and lysed in modified RIPA buffer [50 mM Tris-HCl (pH 7.4), 1% NP-40, 0.25% Na-deoxycholate, 150 mM NaCl, 1 mM EDTA (pH 8.0)] containing Protease Inhibitor Cocktail (Sigma Chemical Co.). The lysate was cleared by centrifligation and protein concentrations were determined with the Bio-Rad Protein Assay (Bio-Rad Laboratories, Hercules, Calif.). Protein samples were separated by SDS-PAGE and electroblofted to a Hybond enhanced chemiluminescence (ECL) nitrocellulose membrane (Amersham) with a semidry blotting apparatus and detected as described in the instruction manual of the ECL Western Blotting System (Amersham). The antibodies used were primary rabbit polyclonal antibodies against Pgp and cyclin B and a horseradish […] conjugated secondary antibody (Santa Cruz Biotechnology). Relative band intensities were measured with ImageJ software. […]

MCF-7 xenografts = MCF-7 xenografts in nude mice, M4N i.p. or oral; type: in vivo; conditions: 21 days systemic treatment, IP injection daily or oral feeding in food balls
Protocol: as §1

[4] = M4N/Dox combination 2.4:1, NCI/ADR-RES
[5] = M4N/paclitaxel combination 20:1, NCI/ADR-RES

SMILES: COc1ccc(C[C@@H](C)[C@@H](C)Cc2ccc(OC)c(OC)c2)cc1OC [M4N, tetra-o-methyl nordihydroguaiaretic acid]
- DRI value at ED75 (NCI/ADR-RES cells [1]; [4]): 5.94
- DRI value at ED90 (NCI/ADR-RES cells [1]; [4]): 24.26
- DRI value at ED95 (NCI/ADR-RES cells [1]; [4]): 63.16
- DRI value at ED75 (NCI/ADR-RES cells [1]; [5]): 3.98
- DRI value at ED90 (NCI/ADR-RES cells [1]; [5]): 5.76
- DRI value at ED95 (NCI/ADR-RES cells [1]; [5]): 7.40
- IC50 (NCI/ADR-RES cells [1]; three days, combinations at molar ratio 2.4:1 (M4N:Dox) or 20:1 (M4N:paclitaxel), given as M4N + second drug, read-out: Dm, median effect dose (concentration that inhibits cell growth by 50%)): 9.14 µM and 8.19 µM
- IC50 (NCI/ADR-RES cells [1]; single agent, read-out: average IC50): 8.67 µM
- M4N required to achieve a total cell arrest (MCF-7 cells): 20 µM
- M4N required to achieve a total cell arrest (NCI/ADR-RES cells [2]): 40 µM
- tumor sizes of xenografts (NCI/ADR-RES xenografts): greatly reduced the tumor sizes
- level of MDR1 mRNA, of the untreated value, normalized to GAPDH (MDR1 mRNA): 36.3%
- level of drug in the blood [3]: extremely low and only presents transiently
- induction of MDR1 expression by Dox (MDR1 mRNA and Pgp): abolished
- tumor sizes of xenografts (MCF-7 xenografts): greatly reduced the tumor sizes
